According to ChEMBL document CHEMBL5728427, “Apoptosis signal-regulating kinase 1 inhibitors and methods of use thereof” (2021):

Molecular target: T1, Mitogen-activated protein kinase kinase kinase 5 (Homo sapiens, UniProt Q99683)
T1 sequence (Q99683 whole entry): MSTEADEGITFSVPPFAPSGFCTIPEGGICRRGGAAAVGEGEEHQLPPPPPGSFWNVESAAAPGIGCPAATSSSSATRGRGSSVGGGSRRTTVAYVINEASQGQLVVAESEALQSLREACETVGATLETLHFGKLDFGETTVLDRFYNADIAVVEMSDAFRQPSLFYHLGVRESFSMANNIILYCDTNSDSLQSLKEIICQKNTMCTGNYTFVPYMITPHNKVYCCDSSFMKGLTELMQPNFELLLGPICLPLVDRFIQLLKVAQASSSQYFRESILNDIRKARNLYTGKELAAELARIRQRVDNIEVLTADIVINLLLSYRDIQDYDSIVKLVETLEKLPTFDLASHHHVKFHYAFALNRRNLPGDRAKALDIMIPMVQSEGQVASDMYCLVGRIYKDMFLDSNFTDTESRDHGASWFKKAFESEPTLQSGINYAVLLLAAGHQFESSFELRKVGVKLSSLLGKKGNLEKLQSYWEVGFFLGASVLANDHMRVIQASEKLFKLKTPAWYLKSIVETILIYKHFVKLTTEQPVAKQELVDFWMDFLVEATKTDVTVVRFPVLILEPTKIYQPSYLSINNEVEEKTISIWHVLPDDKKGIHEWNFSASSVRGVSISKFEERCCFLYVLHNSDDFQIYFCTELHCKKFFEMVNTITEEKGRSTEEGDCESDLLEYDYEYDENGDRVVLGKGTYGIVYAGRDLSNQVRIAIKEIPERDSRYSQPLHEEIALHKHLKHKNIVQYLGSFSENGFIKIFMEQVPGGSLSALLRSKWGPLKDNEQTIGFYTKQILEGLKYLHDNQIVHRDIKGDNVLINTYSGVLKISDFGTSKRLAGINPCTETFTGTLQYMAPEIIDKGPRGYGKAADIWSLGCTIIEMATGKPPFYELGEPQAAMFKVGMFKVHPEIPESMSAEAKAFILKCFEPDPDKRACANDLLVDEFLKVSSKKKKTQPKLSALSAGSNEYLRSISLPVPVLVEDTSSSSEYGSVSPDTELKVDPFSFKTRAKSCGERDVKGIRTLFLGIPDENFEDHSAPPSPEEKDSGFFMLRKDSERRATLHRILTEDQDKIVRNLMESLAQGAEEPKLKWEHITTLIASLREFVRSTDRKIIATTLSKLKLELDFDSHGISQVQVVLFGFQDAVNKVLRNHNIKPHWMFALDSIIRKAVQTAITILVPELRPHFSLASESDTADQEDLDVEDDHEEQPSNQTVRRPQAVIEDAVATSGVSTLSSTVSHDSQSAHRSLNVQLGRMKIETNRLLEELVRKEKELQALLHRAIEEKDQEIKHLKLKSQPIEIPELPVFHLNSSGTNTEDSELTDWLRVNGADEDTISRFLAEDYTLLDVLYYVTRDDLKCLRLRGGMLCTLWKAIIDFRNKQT
Assay: HTRF KinEASE Assay: ASK1 was purchased from Thermofisher (Catalogue #PV4011), ATP was purchased from Sigma (Catalogue #A7699), HTRF® KinEASE™ Assay System was obtained from Cisbio (Bedford, Mass.). ½ Area plate was purchased from Perkin Elmer (Catalogue ##6005560). HTRF® KinEASE™-STK is a generic method for measuring serine/threonine kinase activities using a time-resolved fluorescence resonance energy transfer (TR-FRET) immunoassay. The IC50 value for each compound was determined in the presence of compound (various concentration from 0 to 10 μM) and a fixed amount of ATP and peptide substrates. The test compound, 1 uM STK3 peptide substrate, and 5 nM of ASK1 kinase are incubated with kinase reaction buffer containing 50 mM HEPES pH 7.5, 0.01% BRIJ-35, 10 mM MgCl2, and 1 mM EGTA for 30 minutes. 100 uM ATP is added to start kinase reaction and incubated for 3 hours. The STK3-antibody labeled with Eu3+-Cryptate and 125 nM streptavidin-XL665 are mixed in a single addition with stop reagents provided by the Cisbio kit used to stop the kinase reaction. Fluorescence is detected using an Envision Multilabeled 2014 reader from PerkinElmer. The Fluorescence is measured at 615 nm (Cryptate) and 665 nm (XL665) and a ratio of 665 nm/615 nm is calculated for each well. The resulting TR-FRET is proportional to the phosphorylation level. Staurosporine was used as the positive control.

IC50: > 1000 nM
SMILES: Cc1cc(F)c(C(=O)Nc2cccc(-n3cnnc3)n2)cc1-n1cnc(C2CC2)c1
